# Earlier results, collected in patent US20010036486A1, “Method for treating nicotine addiction and deterring tobacco use with hypericum perforatum” (priority 2000, published 2001).
# Settings: small study; Edward et al. 1989
smiles,measurement,value
CN(C)CCC=C1c2ccccc2COc2ccccc21 [doxepin],help for smoking cessation,showed some promise for helping smoking cessation
